We go through 35 molecules from ChEMBL document CHEMBL1135274, “Spirocyclic nonpeptide glycoprotein IIb-IIIa antagonists. Part 3: synthesis and SAR of potent and specific 2,8-diazaspiro[4.5]decanes” (Bioorg Med Chem Lett, 2002).

One data set is filed under the species Homo sapiens. The experiment in a line: In vitro ability to inhibit aggregation of ADP stimulated human platelets using PRP assay. Type of data set: functional.
For data set [1], the target named is Integrin alpha-IIb/beta-3 (Homo sapiens, UniProt P05106+P08514). In words: In vitro activity to block the binding of fibrinogen to purified human fibrinogen receptor. Type of data set: protein-complex assay.
Sequence of Integrin alpha-IIb/beta-3 (P05106 27-788 limits assumed): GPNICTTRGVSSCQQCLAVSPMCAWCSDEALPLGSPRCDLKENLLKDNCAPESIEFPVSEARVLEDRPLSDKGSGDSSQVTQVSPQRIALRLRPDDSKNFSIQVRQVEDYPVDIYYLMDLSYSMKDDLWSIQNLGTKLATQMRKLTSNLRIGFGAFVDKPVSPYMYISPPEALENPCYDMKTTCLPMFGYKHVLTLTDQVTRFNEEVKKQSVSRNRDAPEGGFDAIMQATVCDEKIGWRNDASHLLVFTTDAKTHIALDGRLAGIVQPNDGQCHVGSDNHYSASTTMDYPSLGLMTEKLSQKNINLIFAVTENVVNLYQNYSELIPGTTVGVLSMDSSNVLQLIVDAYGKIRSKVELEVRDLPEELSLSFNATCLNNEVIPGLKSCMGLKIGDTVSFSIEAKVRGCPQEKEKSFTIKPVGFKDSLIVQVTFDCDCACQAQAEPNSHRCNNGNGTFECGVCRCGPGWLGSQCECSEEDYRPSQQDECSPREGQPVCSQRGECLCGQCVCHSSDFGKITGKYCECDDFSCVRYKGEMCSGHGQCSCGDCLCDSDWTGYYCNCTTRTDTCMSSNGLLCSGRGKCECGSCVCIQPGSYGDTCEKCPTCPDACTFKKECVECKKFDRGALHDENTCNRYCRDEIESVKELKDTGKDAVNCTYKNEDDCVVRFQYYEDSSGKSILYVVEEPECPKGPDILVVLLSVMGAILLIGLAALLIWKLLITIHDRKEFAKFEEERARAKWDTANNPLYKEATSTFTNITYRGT
Sequence of Integrin alpha-IIb/beta-3 (P08514 32-887 limits assumed): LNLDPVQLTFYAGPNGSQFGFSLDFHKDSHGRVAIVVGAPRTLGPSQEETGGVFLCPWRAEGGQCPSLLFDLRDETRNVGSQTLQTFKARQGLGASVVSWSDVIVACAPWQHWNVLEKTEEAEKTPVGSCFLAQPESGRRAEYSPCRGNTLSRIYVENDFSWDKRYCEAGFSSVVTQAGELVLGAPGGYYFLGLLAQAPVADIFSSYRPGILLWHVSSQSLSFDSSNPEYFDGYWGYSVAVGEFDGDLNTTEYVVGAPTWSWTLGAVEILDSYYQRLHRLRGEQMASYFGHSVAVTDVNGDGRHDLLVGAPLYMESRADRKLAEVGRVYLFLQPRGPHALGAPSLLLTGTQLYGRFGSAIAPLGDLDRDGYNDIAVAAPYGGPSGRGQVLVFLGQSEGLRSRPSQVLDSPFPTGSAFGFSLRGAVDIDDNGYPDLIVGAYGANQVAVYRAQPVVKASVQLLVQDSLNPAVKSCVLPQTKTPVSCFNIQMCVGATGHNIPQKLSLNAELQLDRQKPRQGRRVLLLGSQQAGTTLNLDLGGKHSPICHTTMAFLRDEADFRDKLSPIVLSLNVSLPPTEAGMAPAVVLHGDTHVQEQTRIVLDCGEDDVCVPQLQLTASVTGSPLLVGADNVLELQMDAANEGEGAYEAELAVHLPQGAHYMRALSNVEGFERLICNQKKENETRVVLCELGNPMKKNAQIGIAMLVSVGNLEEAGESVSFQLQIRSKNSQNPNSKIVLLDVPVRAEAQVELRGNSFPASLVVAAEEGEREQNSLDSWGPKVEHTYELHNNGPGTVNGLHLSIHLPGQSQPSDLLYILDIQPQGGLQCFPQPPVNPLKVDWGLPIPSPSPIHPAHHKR
Sequence of Integrin alpha-IIb/beta-3 (P08514 891-1039 limits assumed): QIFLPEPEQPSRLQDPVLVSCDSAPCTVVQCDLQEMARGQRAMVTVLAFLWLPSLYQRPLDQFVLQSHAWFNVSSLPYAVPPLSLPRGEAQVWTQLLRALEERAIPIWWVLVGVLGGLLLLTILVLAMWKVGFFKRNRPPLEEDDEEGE
Data set [2] is described as follows: Plasma half life was reported after a intravenous dose of 1 mg/kg in Dawley rat. Type of data set: ADME, organism-based. Also noted: dose 1 mg/kg, route intravenous. Particulars: Sprague-Dawley.
Data set [3] is described as follows: Oral bioavailability in rat (Sprague-Dawley) (dose 1 mg/kg p.o.). Type of data set: ADME, organism-based. The note with it: in vivo.

Take `O=C(O)CCCCNC(=O)N1CCC2(CC1)CCN(c1ccncc1)C2`: the IC50 in the data set listed under Homo sapiens came to 10.6 µM; in data set [1], 11.9 µM.
Regarding `O=C(O)CCCCCNC(=O)N1CCC2(CC1)CCN(c1ccncc1)C2`, the IC50 in the data set listed under Homo sapiens was 74 µM; in data set [1], greater than 50 µM.
Consider `CCCCOC(=O)N[C@@H](CCC(=O)N1CCC2(CC1)CCN(c1ccncc1)C2)C(=O)O`, for which 4 µM corresponded to half-maximal inhibition in the data set filed under Homo sapiens (IC50).
Consider `O=C(O)CN1CCN(C(=O)N2CCC3(CCN(c4ccncc4)CC3)C2)CC1=O`, for which the figures for the IC50 (in the data set filed under Homo sapiens; in data set [1]) were 1.18 µM and 0.025 µM, respectively.
For the molecule `O=C(O)COC1CCN(C(=O)N2CCC3(CC2)CCN(c2ccncc2)C3)CC1`, the concentration for half-maximal inhibition (IC50) in the data set listed under Homo sapiens amounted to 3.8 µM. In other words, the single-digit micromolar range.
Still for that read-out and setting: as for `O=C(O)CCC(=O)N1CCN(C(=O)N2CCC3(CC2)CCN(c2ccncc2)C3)CC1`, the figure is 24.1 µM.
Turning to `O=C(O)CCCNC(=O)N1CCC2(CC1)CCN(c1ccncc1)C2`, the half-inhibitory concentration (IC50) in the data set filed under Homo sapiens is 80 µM; in data set [1], greater than 50 µM.
Consider `O=C(O)COc1ccc(C(=O)N2CCC3(CC2)CCN(c2ccncc2)C3)cc1`, for which inhibition in the data set listed under Homo sapiens was half-maximal at 11.3 µM (IC50).
In the case of `O=C(O)CC1CCN(C(=O)N2CCC3(CC2)CCN(c2ccncc2)C3)CC1`, the IC50 in the data set listed under Homo sapiens came out at 1.2 µM; in data set [1], 0.115 µM.
For `O=C(O)CC(=O)N1CCN(C(=O)N2CCC3(CC2)CCN(c2ccncc2)C3)CC1`, in that order: 0.68 µM and 0.136 µM.
For `O=C(O)COc1cccc(C(=O)N2CCC3(CC2)CCN(c2ccncc2)C3)c1`, the results for the IC50 (in the data set filed under Homo sapiens; in data set [1]) were 18.3 µM and 0.873 µM, respectively.
For `O=C(O)CCCCCC(=O)N1CCC2(CCN(c3ccncc3)CC2)C1`, in that order: 1.3 µM and 0.043 µM.
Regarding `O=C(O)COC1CCN(C(=O)N2CCC3(CCN(c4ccncc4)CC3)C2)CC1`, the figures for the IC50 (in the data set filed under Homo sapiens; in data set [1]) were 1.04 µM and 0.153 µM, respectively.
For `O=C(N[C@@H](CCC(=O)N1CCC2(CC1)CCN(c1ccncc1)C2)C(=O)O)OCc1ccccc1`, in that order: 4.1 µM and 0.025 µM.
For `O=C(O)CCCCC(=O)N1CCC2(CCN(c3ccncc3)CC2)C1`, in that order: 80 µM and greater than 50 µM.
In the case of `O=C(O)CCN1CCN(C(=O)N2CCC3(CC2)CCN(c2ccncc2)C3)CC1`, the half-inhibitory concentration (IC50) is 3.2 µM in the data set listed under Homo sapiens and 0.087 µM in data set [1].
For `O=C(O)CCN1CCC(C(=O)N2CCC3(CC2)CCN(c2ccncc2)C3)CC1`, the IC50 in the data set listed under Homo sapiens is 1 µM.
The same measure, in the same setting: the figure for `O=C(O)CN1CCN(C(=O)N2CCC3(CC2)CCN(c2ccncc2)C3)CC1` is 8.9 µM.
As to `O=C(O)CCN1CCCN(C(=O)N2CCC3(CC2)CCN(c2ccncc2)C3)CC1`, the IC50 in the data set listed under Homo sapiens is 3.7 µM; in data set [1], 0.254 µM.
In turn, `O=C(O)[C@H](CCC(=O)N1CCC2(CC1)CCN(c1ccncc1)C2)NS(=O)(=O)c1cnoc1` showed a half-life in data set [2] of 22.8 min. Besides, the IC50 in the data set filed under Homo sapiens came out at 0.27 µM; in data set [1], 0.002 µM. Besides, the bioavailability in data set [3] came to 12%.
As to `O=C(O)CC(=O)NC1CCN(C(=O)N2CCC3(CC2)CCN(c2ccncc2)C3)C1` (stereo unspecified), in the data set filed under Homo sapiens, half-maximal inhibition (IC50) required 5.9 µM.
`O=C(O)CCNC(=O)N1CCC2(CC1)CCN(c1ccncc1)C2` registered an IC50 in the data set filed under Homo sapiens of 34.6 µM.
For the molecule `O=C(O)CN1CCC(C(=O)N2CCC3(CC2)CCN(c2ccncc2)C3)CC1`, the half-inhibitory concentration (IC50) in the data set listed under Homo sapiens worked out at 9.5 µM; in data set [1], 0.32 µM.
As to `O=C(O)CCn1ccc2cc(C(=O)N3CCC4(CC3)CCN(c3ccncc3)C4)ccc21`, the IC50 was determined as 23.3 µM in the data set listed under Homo sapiens and 1.8 µM in data set [1].
`O=C(O)CCCCCCC(=O)N1CCC2(CCN(c3ccncc3)CC2)C1` displayed an IC50 in the data set listed under Homo sapiens of 18.8 µM.
The same measure, in the same setting: the figure for `O=C(O)CC(=O)N1CCC(C(=O)N2CCC3(CCN(c4ccncc4)CC3)C2)CC1` is 1.58 µM.
With `O=C(O)CS(=O)(=O)N1CCC(C(=O)N2CCC3(CC2)CCN(c2ccncc2)C3)CC1`, the IC50 in the data set listed under Homo sapiens was found to be 1.1 µM; in data set [1], 0.09 µM.
Regarding `O=C(O)CC(=O)N1CCCN(C(=O)N2CCC3(CC2)CCN(c2ccncc2)C3)CC1`, the IC50 in the data set filed under Homo sapiens stood at 0.7 µM.
The same measure, in the same setting: the figure for `O=C(O)COCC1CCN(C(=O)N2CCC3(CC2)CCN(c2ccncc2)C3)CC1` is 2.8 µM.
Regarding `O=C(O)CC(=O)N1CCC(C(=O)N2CCC3(CC2)CCN(c2ccncc2)C3)CC1`, the half-life in data set [2] was 58.8 min. The IC50 in the data set filed under Homo sapiens stood at 0.26 µM; in data set [1], 0.004 µM. In data set [3], this molecule had a bioavailability of 10%.
In the case of `O=C(O)CCN1CCN(C(=O)N2CCC3(CCN(c4ccncc4)CC3)C2)CC1=O`, the concentration for half-maximal inhibition (IC50) came out at 8.34 µM in the data set listed under Homo sapiens and 0.238 µM in data set [1].
For `CC(CC(=O)O)N1CCC(C(=O)N2CCC3(CC2)CCN(c2ccncc2)C3)CC1` (stereo unspecified), the IC50 in the data set listed under Homo sapiens stood at 3.3 µM; in data set [1] it was 0.225 µM.
Consider `O=C(O)Cn1ccc2cc(C(=O)N3CCC4(CC3)CCN(c3ccncc3)C4)ccc21`, for which, in the data set filed under Homo sapiens, 0.95 µM corresponded to half-maximal inhibition (IC50).
Turning to `CN(CC(=O)O)C1CCN(C(=O)N2CCC3(CC2)CCN(c2ccncc2)C3)CC1`, the half-inhibitory concentration (IC50) was 12.4 µM in the data set listed under Homo sapiens and 1.2 µM in data set [1].
For `O=C(O)C1CCN(C(=O)N2CCC3(CC2)CCN(c2ccncc2)C3)CC1`, in that order: 55 µM and 4.2 µM.

Usually IC50 stands for the midpoint of a concentration-inhibition curve. Higher therefore signals lower potency. A word on the half-life: it is the time in which the quantity being followed falls by half. Higher therefore signals slow decline. Usually bioavailability stands for the share of a dose that reaches the circulation, judged against a reference dose that is usually intravenous. The low end stands for little systemic uptake, the high end for much systemic uptake.
